Experimental data taken from PubChem BioAssay AID256 (DTP/NCI, 2004).
Values joined by “and” are separate entries in the source; they are usually repeats but may differ in a detail not shown here. Equal values may be shown once. Inconclusive results and toxic doses are left out.

System: CD2F1 mice, L1210 leukemia ip, survival T/C
Assay: NCI In Vivo Anticancer Drug Screen. Data for tumor model L1210 Leukemia (intraperitoneal) in CD2F1 (CDF1) mice
Conditions: endpoint: mean survival time, higher = longer survival
In short: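 In this screen, transplantable tumors were grown in mice given either the compound or its vehicle. Results were expressed as the treated measurement relative to the control measurement.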

For `COC(=O)C(N)CCCCNc1ccc2c(cc1=O)C(NC(C)=O)CCc1cc(OC)c(OC)c(OC)c1-2` (configuration not stated), the T/C (dose: 3.1 mg/kg/injection, schedule: Q03HX008 (ip), vehicle: saline) was 105 % of control, the T/C (dose: 3.1 mg/kg/injection, schedule: Q03HX016 (ip), vehicle: saline) was 91 % of control and the T/C (dose: 3.1 mg/kg/injection, schedule: Q03HX024 (ip), vehicle: saline) was 96 % of control. For the same molecule, the T/C (dose: 6.3 mg/kg/injection, schedule: Q03HX008 (ip), vehicle: saline) was 92 % of control, the T/C (dose: 6.3 mg/kg/injection, schedule: Q03HX016 (ip), vehicle: saline) was 103 % of control and the T/C (dose: 6.3 mg/kg/injection, schedule: Q03HX024 (ip), vehicle: saline) was 102 % of control. For the same molecule, the T/C (dose: 12.5 mg/kg/injection, schedule: Q01DX009 (ip), vehicle: saline) was 91 % of control, the T/C (dose: 12.5 mg/kg/injection, schedule: Q01DX009 (sc), vehicle: saline) was 88 % of control and the T/C (dose: 12.5 mg/kg/injection, schedule: Q03HX008 (ip), vehicle: saline) was 97 % of control. For the same molecule, the T/C (dose: 12.5 mg/kg/injection, schedule: Q03HX016 (ip), vehicle: saline) was 97 % of control, the T/C (dose: 12.5 mg/kg/injection, schedule: Q03HX024 (ip), vehicle: saline) was 107 % of control and the T/C (dose: 25.0 mg/kg/injection, schedule: Q01DX001 (ip), vehicle: saline) was 102 % of control. The T/C (dose: 25.0 mg/kg/injection, schedule: Q01DX001 (oral), vehicle: saline) was 100 % of control, the T/C (dose: 25.0 mg/kg/injection, schedule: Q01DX001 (sc), vehicle: saline) was 88 % of control and the T/C (dose: 25.0 mg/kg/injection, schedule: Q01DX009 (ip), vehicle: saline) was 100 % of control. For the same molecule, the T/C (dose: 25.0 mg/kg/injection, schedule: Q01DX009 (oral), vehicle: saline) was 96 % of control, the T/C (dose: 25.0 mg/kg/injection, schedule: Q01DX009 (sc), vehicle: saline) was 91 % of control and the T/C (dose: 25.0 mg/kg/injection, schedule: Q03HX008 (ip), vehicle: saline) was 105 % of control. For the same molecule, the T/C (dose: 25.0 mg/kg/injection, schedule: Q03HX016 (ip), vehicle: saline) was 94 % of control, the T/C (dose: 25.0 mg/kg/injection, schedule: Q03HX024 (ip), vehicle: saline) was 108 % of control and the T/C (dose: 25.0 mg/kg/injection, schedule: Q04DX003 (ip), vehicle: saline) was 100 % of control. The T/C (dose: 25.0 mg/kg/injection, schedule: Q08DX002 (ip), vehicle: saline) was 91 % of control, the T/C (dose: 50.0 mg/kg/injection, schedule: Q01DX001 (ip), vehicle: saline) was 94 % of control and the T/C (dose: 50.0 mg/kg/injection, schedule: Q01DX001 (oral), vehicle: saline) was 94 % of control. The T/C (dose: 50.0 mg/kg/injection, schedule: Q01DX001 (sc), vehicle: saline) was 92 % of control, the T/C (dose: 50.0 mg/kg/injection, schedule: Q01DX009 (ip), vehicle: saline) was 103 % of control and the T/C (dose: 50.0 mg/kg/injection, schedule: Q01DX009 (oral), vehicle: saline) was 91 % of control. The T/C (dose: 50.0 mg/kg/injection, schedule: Q01DX009 (sc), vehicle: saline) was 91 % of control, the T/C (dose: 50.0 mg/kg/injection, schedule: Q03HX008 (ip), vehicle: saline) was 107 % of control and the T/C (dose: 50.0 mg/kg/injection, schedule: Q03HX016 (ip), vehicle: saline) was 97 % of control. For the same molecule, the T/C (dose: 50.0 mg/kg/injection, schedule: Q03HX024 (ip), vehicle: saline) was 111 % of control, the T/C (dose: 50.0 mg/kg/injection, schedule: Q04DX003 (ip), vehicle: saline) was 92 % of control and the T/C (dose: 50.0 mg/kg/injection, schedule: Q08DX002 (ip), vehicle: saline) was 103 % of control. The T/C (dose: 53.0 mg/kg/injection, schedule: Q01DX005 (ip), vehicle: saline) was 108 % of control, the T/C (dose: 53.0 mg/kg/injection, schedule: Q01DX009 (ip), vehicle: saline) was 107 % of control and the T/C (dose: 53.0 mg/kg/injection, schedule: Q04DX003 (ip), vehicle: saline) was 87 % of control. For the same molecule, the T/C (dose: 80.0 mg/kg/injection, schedule: Q01DX005 (ip), vehicle: saline) was 114 % of control, the T/C (dose: 80.0 mg/kg/injection, schedule: Q01DX009 (ip), vehicle: saline) was 110 % of control and the T/C (dose: 80.0 mg/kg/injection, schedule: Q04DX003 (ip), vehicle: saline) was 87 % of control. The T/C (dose: 100.0 mg/kg/injection, schedule: Q01DX001 (ip), vehicle: saline with Tween-80) was 106 % of control, the T/C (dose: 100.0 mg/kg/injection, schedule: Q01DX001 (ip), vehicle: saline) was 88 % of control and the T/C (dose: 100.0 mg/kg/injection, schedule: Q01DX001 (oral), vehicle: saline) was 96 % of control. For the same molecule, the T/C (dose: 100.0 mg/kg/injection, schedule: Q01DX001 (sc), vehicle: saline) was 92 % of control, the T/C (dose: 100.0 mg/kg/injection, schedule: Q01DX009 (ip), vehicle: saline) was 114 % of control and the T/C (dose: 100.0 mg/kg/injection, schedule: Q01DX009 (oral), vehicle: saline) was 91 % of control. The T/C (dose: 100.0 mg/kg/injection, schedule: Q01DX009 (sc), vehicle: saline) was 92 % of control, the T/C (dose: 100.0 mg/kg/injection, schedule: Q04DX002 (ip), vehicle: saline) was 108 % of control and the T/C (dose: 100.0 mg/kg/injection, schedule: Q04DX003 (ip), vehicle: saline) was 91 % of control. For the same molecule, the T/C (dose: 100.0 mg/kg/injection, schedule: Q08DX002 (ip), vehicle: saline) was 100 % of control, the T/C (dose: 120.0 mg/kg/injection, schedule: Q01DX005 (ip), vehicle: saline) was 118 % of control and the T/C (dose: 120.0 mg/kg/injection, schedule: Q01DX009 (ip), vehicle: saline) was 114 % of control. The T/C (dose: 120.0 mg/kg/injection, schedule: Q04DX003 (ip), vehicle: saline) was 98 % of control, the T/C (dose: 180.0 mg/kg/injection, schedule: Q01DX005 (ip), vehicle: saline) was 118 % of control and the T/C (dose: 180.0 mg/kg/injection, schedule: Q01DX009 (ip), vehicle: saline) was 105 % of control. For the same molecule, the T/C (dose: 180.0 mg/kg/injection, schedule: Q04DX003 (ip), vehicle: saline) was 96 % of control, the T/C (dose: 200.0 mg/kg/injection, schedule: Q01DX001 (ip), vehicle: saline with Tween-80) was 106 % of control and the T/C (dose: 200.0 mg/kg/injection, schedule: Q01DX001 (ip), vehicle: saline) was 97 % of control. For the same molecule, the T/C (dose: 200.0 mg/kg/injection, schedule: Q01DX001 (oral), vehicle: saline) was 94 % of control, the T/C (dose: 200.0 mg/kg/injection, schedule: Q01DX001 (sc), vehicle: saline) was 97 % of control and the T/C (dose: 200.0 mg/kg/injection, schedule: Q01DX009 (ip), vehicle: saline) was 118 % of control. The T/C (dose: 200.0 mg/kg/injection, schedule: Q01DX009 (oral), vehicle: saline) was 96 % of control, the T/C (dose: 200.0 mg/kg/injection, schedule: Q01DX009 (sc), vehicle: saline) was 94 % of control and the T/C (dose: 200.0 mg/kg/injection, schedule: Q04DX002 (ip), vehicle: saline) was 104 % of control. For the same molecule, the T/C (dose: 200.0 mg/kg/injection, schedule: Q04DX003 (ip), vehicle: saline) was 103 % of control, the T/C (dose: 200.0 mg/kg/injection, schedule: Q08DX002 (ip), vehicle: saline) was 111 % of control and the T/C (dose: 270.0 mg/kg/injection, schedule: Q01DX005 (ip), vehicle: saline) was 90 % of control. The T/C (dose: 270.0 mg/kg/injection, schedule: Q04DX003 (ip), vehicle: saline) was 98 % of control, the T/C (dose: 400.0 mg/kg/injection, schedule: Q01DX001 (ip), vehicle: saline with Tween-80) was 107 % of control and the T/C (dose: 400.0 mg/kg/injection, schedule: Q01DX001 (ip), vehicle: saline) was 108 % of control. For the same molecule, the T/C (dose: 400.0 mg/kg/injection, schedule: Q01DX001 (oral), vehicle: saline) was 96 % of control, the T/C (dose: 400.0 mg/kg/injection, schedule: Q01DX001 (sc), vehicle: saline) was 100 % of control and the T/C (dose: 400.0 mg/kg/injection, schedule: Q04DX003 (ip), vehicle: saline) was 113 % of control. The T/C (dose: 400.0 mg/kg/injection, schedule: Q08DX002 (ip), vehicle: saline) was 113 % of control and the T/C (dose: 800.0 mg/kg/injection, schedule: Q01DX001 (oral), vehicle: saline) was 94 % of control.
In the case of `CC[C@@]1(O)C(=O)OCc2c1cc1n(c2=O)Cc2cc3cc(OC)ccc3nc2-1`, the T/C (dose: 0.78 mg/kg/injection, schedule: Q04DX003 (ip), vehicle: water) is reported as 119 % of control, the T/C (dose: 3.13 mg/kg/injection, schedule: Q04DX003 (ip), vehicle: water) is reported as 155 % of control and 181 % of control and the T/C (dose: 6.25 mg/kg/injection, schedule: Q04DX003 (ip), vehicle: water) is reported as 113 % of control.
